According to patent publication US8937065B2, “Compositions and methods for modulating a kinase” (Clevexel Pharma, priority 2011, dated 2015):
≈ marks a conversion by molar mass, not a printed value. Where two headings read alike, the source gives them in different places.

What was measured:
Ramos cells = test: Proliferation of Ramos cells (Cell Titer-Glo); details: Homo sapiens, B cells, outcome-based, read-out: IC50 Proliferation Ramos cells (Burkitt's lymphoma)
Caco-2 = Caco-2 permeability and efflux; format: in vitro ADME
Namalwa cells = test: Proliferation of Namalwa cells (Cell Titer-Glo); details: Homo sapiens, B-cell, outcome-based, read-out: IC50 Proliferation Namalwa cells (Burkitt's Lymphoma)
JAK3 [1] = molecular target: T1, JAK3 (Homo sapiens, UniProt P52333); test: JAK3 enzymatic activity assay (Z'-LYTE Biochemical Kinase Assay, 2 hr preincubation at 4° C.); details: cell-free
T1 construct: purchased Invitrogen, Madison, Wis
T1 sequence (P52333 1-1124): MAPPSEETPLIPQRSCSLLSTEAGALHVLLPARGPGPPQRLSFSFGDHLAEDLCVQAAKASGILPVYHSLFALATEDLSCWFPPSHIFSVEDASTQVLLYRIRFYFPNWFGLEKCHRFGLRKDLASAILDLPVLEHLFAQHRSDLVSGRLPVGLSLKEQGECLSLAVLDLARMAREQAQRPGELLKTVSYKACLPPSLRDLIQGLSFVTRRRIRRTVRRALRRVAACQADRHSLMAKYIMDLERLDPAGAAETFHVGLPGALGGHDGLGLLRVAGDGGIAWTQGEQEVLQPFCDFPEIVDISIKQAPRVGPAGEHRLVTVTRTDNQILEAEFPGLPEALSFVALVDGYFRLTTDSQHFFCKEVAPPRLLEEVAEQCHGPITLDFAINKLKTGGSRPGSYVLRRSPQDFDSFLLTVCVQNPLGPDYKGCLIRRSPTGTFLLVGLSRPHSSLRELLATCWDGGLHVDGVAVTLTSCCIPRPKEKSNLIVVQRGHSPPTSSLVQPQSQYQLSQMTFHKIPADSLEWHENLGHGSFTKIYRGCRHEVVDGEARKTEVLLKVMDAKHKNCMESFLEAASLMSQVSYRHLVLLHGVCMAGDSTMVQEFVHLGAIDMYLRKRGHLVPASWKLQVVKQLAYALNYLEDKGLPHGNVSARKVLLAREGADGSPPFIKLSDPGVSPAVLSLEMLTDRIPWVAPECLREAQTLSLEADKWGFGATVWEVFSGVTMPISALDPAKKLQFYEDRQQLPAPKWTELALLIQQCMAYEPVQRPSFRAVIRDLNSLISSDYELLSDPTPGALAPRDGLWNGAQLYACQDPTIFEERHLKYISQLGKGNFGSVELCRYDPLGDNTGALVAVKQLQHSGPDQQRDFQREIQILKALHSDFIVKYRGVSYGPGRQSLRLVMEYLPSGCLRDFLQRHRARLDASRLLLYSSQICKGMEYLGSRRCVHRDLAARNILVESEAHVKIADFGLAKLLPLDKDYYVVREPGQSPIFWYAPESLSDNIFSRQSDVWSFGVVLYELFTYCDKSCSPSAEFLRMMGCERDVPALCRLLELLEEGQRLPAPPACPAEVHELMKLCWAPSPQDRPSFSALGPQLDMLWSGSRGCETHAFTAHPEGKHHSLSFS

JAK3 [2] = molecular target: T1, JAK3; test: as above; details: cell free, 1% DMSO, read-out: JAK3 activity cell free (2 hr preincubation at (4° C.) Kj)
Method: The assays were performed according to manufacturer's protocols, except that prior to the kinase reaction they were pre-incubated for 2 hours at 4° C., in order to be able to assay for time-dependent inhibition.
In addition to the compound, each 10 μL JAK3 kinase reaction contained 0.43-1.89 ng JAK3 and 2 μM peptide substrate in 50 mM HEPES (pH 7.5), 0.01% BRIJ-35, 10 mM MgCl2 and 1 mM EGTA. The kinase reaction was allowed to proceed for 1 hour.

Solubility, turbidity = format: physicochemical; details: kinetic from dmso stock
NALM-6 cells = test: Proliferation of NALM-6 cells (cell proliferation index, flow cytometry); details: Homo sapiens, B cells, outcome-based, read-out: IC50 Proliferation NALM-6 cells (ALL)
Method: Cell proliferation of the human B cell precursor leukemia tumor cell line NALM-6 was measured by a cell proliferation index assay. This assay was based on the dilution rate of a fluorescent membrane marker which is directly linked to the cell division. Briefly, the assay was performed by loading the cells with a non-toxic fluorescent phospholipid analog before the seeding. The probe inserts stably into the plasmic membrane and was distributed between daughter cells after division. Flow cytometry analysis of the fluorescent probe was performed directly after the loading of the cells and after 96 hours of culture. The dilution rate of the fluorescent probe at the single cell level was directly correlated to the number of cell divisions. All experiments were performed in triplicate.
Detection of cellular events was performed in triplicate in 96 well-plates after 72 hours of treatment by automated flow cytometry. Non-linear regressions were performed with GraphPad Prism 4.01 software.
Cells were previously thawed and amplified in standard culture conditions (37° C., 5% CO2). NALM-6 cells were cultivated in RPMI 1640+10% inactivated Fetal Bovine Serum. […]
Day 4: After 72 hours of treatment, the cells were analyzed by automated flow cytometry.

Daudi cells = test: Daudi CTG assay (Daudi proliferation, 72 hr, Cell Titer Glo); format: cell-based; details: Homo sapiens
Method: The compounds of the invention were tested on Daudi proliferation according to the procedure in Example 4 (for Daudi cells): Proliferation of RS4; 11, Ramos, Namalwa, RL, Molt-4 and Daudi cells. The compounds of the invention were tested on Daudi proliferation (72 hr), 3 fold dilution, and 9 points in duplicates. The top concentration for compounds of the invention was 10 uM; reference compound 7A top concentration was 10 uM; and Paclitaxel was 500 nM. Cell viability was determined using the Cell Titer Glo (CTG) reagent and detected by EnVision. EC50s were calculated by Prism 5.
The CellTiter-Glo™ Luminescent Cell Viability Assay uses ATP, a required co-factor of the luciferase reaction, as an indicator of metabolically active cells. The enzyme luciferase acts on luciferin in the presence of Mg^2+and ATP to produce oxyluciferin and to release energy in the form of luminescence. Since the luciferase reaction requires ATP, the luminescence produced is proportional to the amount of ATP present, an indicator of cellular metabolic activity.

hERG = hERG (Homo sapiens, UniProt Q12809); test: hERG IC50
Chain of hERG (Q12809 whole entry): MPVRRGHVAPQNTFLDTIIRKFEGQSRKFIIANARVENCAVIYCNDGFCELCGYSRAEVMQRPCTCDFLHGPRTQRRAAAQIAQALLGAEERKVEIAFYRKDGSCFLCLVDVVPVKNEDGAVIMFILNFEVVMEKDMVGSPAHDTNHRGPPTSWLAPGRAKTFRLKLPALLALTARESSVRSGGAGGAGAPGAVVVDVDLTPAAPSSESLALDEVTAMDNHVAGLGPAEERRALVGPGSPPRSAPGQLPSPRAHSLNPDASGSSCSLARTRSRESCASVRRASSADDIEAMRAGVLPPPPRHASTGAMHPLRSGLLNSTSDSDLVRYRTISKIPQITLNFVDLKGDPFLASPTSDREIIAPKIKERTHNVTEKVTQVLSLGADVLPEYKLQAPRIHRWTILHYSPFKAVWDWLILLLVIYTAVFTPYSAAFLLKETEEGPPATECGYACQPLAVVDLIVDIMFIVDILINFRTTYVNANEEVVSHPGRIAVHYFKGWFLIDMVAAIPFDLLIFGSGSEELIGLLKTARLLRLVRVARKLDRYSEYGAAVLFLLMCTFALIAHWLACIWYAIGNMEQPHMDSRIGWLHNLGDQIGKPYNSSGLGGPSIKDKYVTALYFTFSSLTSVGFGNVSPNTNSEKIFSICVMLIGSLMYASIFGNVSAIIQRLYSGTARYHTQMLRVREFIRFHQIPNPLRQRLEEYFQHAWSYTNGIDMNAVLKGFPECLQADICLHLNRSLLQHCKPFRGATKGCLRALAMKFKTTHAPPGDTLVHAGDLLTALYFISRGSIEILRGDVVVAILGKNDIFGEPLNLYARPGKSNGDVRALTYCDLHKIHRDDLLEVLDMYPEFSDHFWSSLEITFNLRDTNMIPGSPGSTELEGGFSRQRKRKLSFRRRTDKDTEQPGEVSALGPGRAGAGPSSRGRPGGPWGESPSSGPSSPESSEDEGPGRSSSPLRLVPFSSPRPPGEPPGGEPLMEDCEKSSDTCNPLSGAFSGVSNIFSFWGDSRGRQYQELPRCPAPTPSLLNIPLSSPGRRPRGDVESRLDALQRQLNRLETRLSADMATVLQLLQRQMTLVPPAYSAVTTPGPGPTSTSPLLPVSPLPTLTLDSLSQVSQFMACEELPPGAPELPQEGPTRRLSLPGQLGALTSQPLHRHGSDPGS

In the case of `O=C(CN1CCOCC1)Nc1cccc(-c2nc(-c3c[nH]c(C(=O)N4CCCC4)c3)cs2)c1` [7A, 2-morpholino-N-(3-(4-(5-(pyrrolidine-1-carbonyl)-1H-pyrrol-3-yl)thiazol-2-yl)phenyl)acetamide], the IC50 (Ramos cells) is reported as 0.534 µM, the “Caco-2 Eflux” value (Caco-2; Caco-2) is reported as “no” and the “Caco-2 Papp A-B (×10^6/cm · s^−1)” value (Caco-2; Caco-2, A-B) is reported as 24 ×10^6/cm · s^−1. It also gave an IC50 (Namalwa cells) of 28 µM, a Ki (JAK3 [1]) of 0.795 µM and a Ki (JAK3 [2]) of 1.1 to 10 µM. For the same compound, the solubility (Solubility, turbidity) was 60 to 80 µM (≈ 27.9 to 37.2 µg/mL), the IC50 (NALM-6 cells) was 0.48 µM and the IC50 (Daudi cells; Daudi, read-out: Daudi CTG assay IC50, historical data) was 0.122 µM. It also gave an IC50 (Daudi cells; Daudi proliferation 72 hr, control compounds, read-out: Daudi CTG assay control IC50) of 0.102 µM and an IC50 (hERG) of over 10 µM.
